Source: article PMC6980506, “Comparative pharmacokinetics and pharmacodynamics of the advanced Retinol-Binding Protein 4 antagonist in dog and cynomolgus monkey” (PLoS ONE, 2020)
Where “and” joins values, the source holds several entries; their conditions need not be identical. Identical values can stand only once. Like-named read-outs stand apart in the source and are kept apart here.

How the values were obtained:
[1] = Single dose pharmacokinetic study in cynomolgus monkey; format: in vivo
Method: Pharmacokinetic studies were conducted in male beagle dogs and male cynomolgus monkeys at SRI International, Menlo Park, CA. General procedures for animal care and housing were in accordance with the National Research Council (NRC) Guide for the Care and Use of Laboratory Animals (1996) and the Animal Welfare Standards incorporated in 9 CFR Part 3, 1991 and complied with guidelines set forth by the ARVO Animal Statement for the Use of Animals in Ophthalmic and Vision Research. During the course of the PK experiments, cynomolgus monkeys were individually housed in stainless steel primary enclosures in an AAALAC-accredited facility. Animals were fed a commercial monkey chow, and supplemental food was provided (fresh fruits, vegetables, seeds, and nuts). Reverse osmosis-purified drinking water was available at all times. Cynomolgus monkeys were maintained on a 12:12 hour light:dark cycle at the 64–84°F temperature and 30–70% humidity. Monkeys had access to enrichment opportunities (grooming devices, foraging devices, activity panels and mirrors) and were provided auditory stimuli and human interaction enrichment throughout the study. Blood samples were collected by venipuncture of a peripheral vein. Animals were acclimated to the squeeze back mechanism in their home cage by repeated, short periods of restraint during general husbandry procedures for at least 2 weeks prior to dosing. Animal were not removed from their cages for collection, and no anesthesia/analgesic agents were used for blood collection. […] For PK experiments, beagle dogs were individually housed in enclosed run (≥ 4 ft x 6 ft). Dogs were exposed to their daily ration of food, Harlan Teklad 2025C Certified Global 25% Protein Dog Diet. Water was provided from the public water supply (municipal tap water) ad libitum. Dogs were maintained on a 12:12 hour light:dark cycle at the 72–73°F temperature and 40–71% humidity. Every effort was made to minimize, if not eliminate, pain and suffering in all animals in this study. No restraining devices were used in blood collecting procedures. Dogs were gentle hand-held to restrain by trained technicians with the dogs foreleg extended for sample collection of blood from cephalic vein. Animals were awake during blood sample collection with no anesthesia/analgesic agents used, and positive reinforcement by the technician was provided following collection. […] All dogs were released back to the colony after the study was completed. Male beagle dogs and male cynomolgus monkey received a single i.v. dose of a test compound at 0.5 mg kg^−1 (dog) and 1 mg kg^−1 (monkey) or a single p.o. dose of a test compound of at 2 mg kg^−1 (dog) and 5 mg kg^−1 (monkey). The number of animals that was used in PK experiments is 3 per study group. Intravenous administration vehicle was 3% DMA/45% PEG300/12% ethanol/40% sterile water; p.o. vehicle was 2% Tween 80 in 0.9% saline. […] Blood samples were processed to plasma. Following protein extraction with acetonitrile, compound concentrations in plasma were measured by LC-MS/MS. The plasma drug level data were analyzed using WinNonlin software package; Model 201 (for i.v. bolus administration);was used for the analysis of i.v. data, and Model 200 (for extravascular administration) was used for the analysis of the p.o. data. Aliquots of pre-dose plasma samples, as well as aliquots of plasma PK samples, were used for the analysis of the plasmabiomarker, RBP4.
Administration to Non-Human Primates
II. MATERIALS AND METHODS

hERG channel = tested on: hERG channel; design: method as in PMID 26181715; details: cited from earlier work
[2] = design: method as in PMID 26181715; details: human liver microsomes; cited from earlier work
[3] = male, cynomolgus monkey, plasma, po, Cyno, 5.0 mg kg^−1 p.o., mean ± SD, n=3

For `Cc1cc(C(=O)O)nc(N2C[C@H]3C[C@@H](c4ccccc4C(F)(F)F)C[C@H]3C2)n1` [BPN-14136], the concentration at 4 hr ([1]; male, cynomolgus monkey, plasma, po, 5 mg/kg, non-human primate, po 5 mg/kg, 4 hr, read-out: Plasma level, Individual animals) was 26600 ng/mL, the concentration at 4 hr ([1]; male, cynomolgus monkey, plasma, po, 5 mg/kg, non-human primate, po 5 mg/kg, 4 hr, read-out: Plasma level, Mean) was 27200 ng/mL and the concentration at 6 hr ([1]; male, cynomolgus monkey, plasma, po, 5 mg/kg, non-human primate, po 5 mg/kg, 6 hr, read-out: Plasma level, Individual animals) was 26700 ng/mL. It also gave a concentration at 6 hr ([1]; male, cynomolgus monkey, plasma, po, 5 mg/kg, non-human primate, po 5 mg/kg, 6 hr, read-out: Plasma level, Mean) of 26600 ng/mL, a concentration at 8 h ([1]; male, cynomolgus monkey, plasma, po, 5 mg/kg, non-human primate, po 5 mg/kg, 8 hr, read-out: Plasma level, Individual animals) of 23900 ng/mL and a concentration at 8 h ([1]; male, cynomolgus monkey, plasma, po, 5 mg/kg, non-human primate, po 5 mg/kg, 8 hr, read-out: Plasma level, Mean) of 23900 ng/mL. It also gave a concentration at 12 h ([1]; male, cynomolgus monkey, plasma, po, 5 mg/kg, non-human primate, po 5 mg/kg, 12 hr, read-out: Plasma level, Individual animals) of 16700 ng/mL, a concentration at 12 h ([1]; male, cynomolgus monkey, plasma, po, 5 mg/kg, non-human primate, po 5 mg/kg, 12 hr, read-out: Plasma level, Mean) of 18600 ng/mL and a concentration at 24 h ([1]; male, cynomolgus monkey, plasma, po, 5 mg/kg, non-human primate, po 5 mg/kg, 24 hr, read-out: Plasma level, Individual animals) of 12700 ng/mL. It also gave a concentration at 24 h ([1]; male, cynomolgus monkey, plasma, po, 5 mg/kg, non-human primate, po 5 mg/kg, 24 hr, read-out: Plasma level, Mean) of 12500 ng/mL, a concentration at 36 h ([1]; male, cynomolgus monkey, plasma, po, 5 mg/kg, non-human primate, po 5 mg/kg, 36 hr, read-out: Plasma level, Individual animals) of 6800 ng/mL and a concentration at 36 h ([1]; male, cynomolgus monkey, plasma, po, 5 mg/kg, non-human primate, po 5 mg/kg, 36 hr, read-out: Plasma level, Mean) of 7190 ng/mL. It also gave a concentration at 48 h ([1]; male, cynomolgus monkey, plasma, po, 5 mg/kg, non-human primate, po 5 mg/kg, 48 hr, read-out: Plasma level, Mean) of 5380 ng/mL, an AUC(0-t) [1, 3] of 676 ± 129 µg·h/mL and a Tmax [1, 3] of 1.67 ± 0.58 h. For the same compound, the half-life ([1]; male, cynomolgus monkey, plasma, po, Cyno, 5.0 mg kg^−1 p.o., mean ± SD, n=3, read-out: T1/2, apparent terminal half-life (converted)) was 1070 ± 252 min, the “Plasma level, Individual animals” value ([1]; non-human primate, iv 1.0 mg/kg, 0.0083 hr, 1 mg/kg) was 11200 ng/mL and 12100 ng/mL and the “Plasma level, Individual animals” value ([1]; non-human primate, iv 1.0 mg/kg, 0.25 hr, 1 mg/kg) was 10900 ng/mL and 10800 ng/mL. The “Plasma level, Individual animals” value ([1]; non-human primate, iv 1.0 mg/kg, 0.5 hr, 1 mg/kg) was 10000 ng/mL and 9400 ng/mL, the “Plasma level, Individual animals” value ([1]; non-human primate, iv 1.0 mg/kg, 1 hr, 1 mg/kg) was 8350 ng/mL and 9370 ng/mL and the “Plasma level, Individual animals” value ([1]; non-human primate, iv 1.0 mg/kg, 2 hr, 1 mg/kg) was 7340 ng/mL and 8000 ng/mL. For the same compound, the “Plasma level, Individual animals” value ([1]; non-human primate, iv 1.0 mg/kg, 4 hr, 1 mg/kg) was 6800 ng/mL and 7000 ng/mL, the “Plasma level, Individual animals” value ([1]; non-human primate, iv 1.0 mg/kg, 8 hr, 1 mg/kg) was 5290 ng/mL and 6220 ng/mL and the “Plasma level, Individual animals” value ([1]; non-human primate, iv 1.0 mg/kg, 12 hr, 1 mg/kg) was 3860 ng/mL and 6000 ng/mL. For the same compound, the “Plasma level, Individual animals” value ([1]; non-human primate, iv 1.0 mg/kg, 24 hr, 1 mg/kg) was 2510 ng/mL and 3430 ng/mL, the “Plasma level, Individual animals” value ([1]; non-human primate, iv 1.0 mg/kg, 36 hr, 1 mg/kg) was 1610 ng/mL and 1090 ng/mL and 2300 ng/mL and the “Plasma level, Individual animals” value ([1]; non-human primate, iv 1.0 mg/kg, 48 hr, 1 mg/kg) was 962 ng/mL and 671 ng/mL and 1530 ng/mL. For the same compound, the “Plasma level, Mean” value ([1]; non-human primate, iv 1.0 mg/kg, Predose) was 196 ng/mL, the “Plasma level, Individual animals” value ([1]; non-human primate, iv 1.0 mg/kg, Predose, 1 mg/kg) was 132 ng/mL and 64.6 ng/mL and 392 ng/mL and the “Plasma level, Individual animals” value ([1]; non-human primate, po 5 mg/kg, 0.25 hr, 5 mg/kg) was 9420 ng/mL and 14200 ng/mL. For the same compound, the “Plasma level, Individual animals” value ([1]; non-human primate, po 5 mg/kg, 0.5 hr, 5 mg/kg) was 15200 ng/mL and 23400 ng/mL, the “Plasma level, Individual animals” value ([1]; non-human primate, po 5 mg/kg, 1 hr, 5 mg/kg) was 31400 ng/mL and 33300 ng/mL and the “Plasma level, Individual animals” value ([1]; non-human primate, po 5 mg/kg, 2 hr, 5 mg/kg) was 29300 ng/mL and 32000 ng/mL. For the same compound, the “Plasma level, Individual animals” value ([1]; non-human primate, po 5 mg/kg, 4 hr, 5 mg/kg) was 25800 ng/mL and 29100 ng/mL, the “Plasma level, Individual animals” value ([1]; non-human primate, po 5 mg/kg, 6 hr, 5 mg/kg) was 22400 ng/mL and 30600 ng/mL and the “Plasma level, Individual animals” value ([1]; non-human primate, po 5 mg/kg, 8 hr, 5 mg/kg) was 21700 ng/mL and 26200 ng/mL. The “Plasma level, Individual animals” value ([1]; non-human primate, po 5 mg/kg, 12 hr, 5 mg/kg) was 16100 ng/mL and 22900 ng/mL, the “Plasma level, Individual animals” value ([1]; non-human primate, po 5 mg/kg, 24 hr, 5 mg/kg) was 9590 ng/mL and 15100 ng/mL and the “Plasma level, Individual animals” value ([1]; non-human primate, po 5 mg/kg, 36 hr, 5 mg/kg) was 5230 ng/mL and 9530 ng/mL. The “Plasma level, Individual animals” value ([1]; non-human primate, po 5 mg/kg, 48 hr, 5 mg/kg) was 4550 ng/mL and 2950 ng/mL and 8650 ng/mL, the “off-target activity at the hERG channel” value (hERG channel) was “no significant off-target activity” and the “stability in liver microsomes, % remaining at 30 min” value [2] was greater than 90%.
